Laboratory results taken from US20250313560A1, “Novel bicyclic benzylamido pyridine derivatives as SOS1 inhibitors” (Boehringer Ingelheim International GmbH, priority 2024, published 2025).
pIC50: −log10 of the molar value. Where two headings read alike, the source gives them in different places.

Legend:
SOS1 and KRAS G12C = SOS1 and KRAS G12C (Homo sapiens (Human), UniProt Q07889); test: KRAS::SOS1 AlphaScreen binding assay (KRAS G12C); details: average of at least two measurements
Method: (§1) Low IC50 values are indicative of high potency of the SOS1 inhibitor compound in this assay setting:
(§2) • GST-tagged SOS1 (564_1049_GST_TEV_ECO) produced in-house • 6xHis-Tev-K-RasG12D/G12C(1-169)Avi produced in-house • GDP (Sigma Cat No G7127) • AlphaLISA Glutathione Acceptor Beads (PerkinElmer, Cat No AL109) • AlphaScreen Streptavidin Donor Beads (PerkinElmer Cat No 6760002) • Assay plates: Proxiplate-384 PLUS, white (PerkinElmer, Cat No 6008289)
(§3) [formula] • KRAS::SOS1 GDP mix: • 7.5 nM (final assay concentration) K-RasG12C, 10 nM (final assay concentration) K-RasG12D, 10 μM (final assay concentration) GDP and 5 nM (final assay concentration) GST-SOS1 are mixed in assay buffer prior to use and kept at rt. Bead mix: • AlphaLISA Glutathione Acceptor Beads and AlphaScreen Streptavidin Donor Beads are mixed in the dark in assay buffer at a concentration of 10 μg/mL (final assay concentration) each prior to use and kept at rt.
(§4) Compounds are diluted to a final start concentration of 100 μM and are tested in duplicate. Assay-ready plates (ARPs) are generated using an Access Labcyte Workstation with a Labcyte Echo 550 or 555 acoustic dispenser. For compound a start concentration of 100 μM, 150 nL of compound solution is transferred per well in 11 concentrations in duplicate with serial 1:5 dilutions.
(§5) The assay is run using a fully automated robotic system in a darkened room below 100 Lux. 10 μL of KRAS::SOS1 GDP mix is added into columns 1-24 to the 150 nL of compound solution (final dilution in the assay 1:100, final DMSO concentration 1%).
(§6) After a 30 minute incubation time, 5 μL of bead mix is added into columns 1-23. Plates are kept at rt in a darkened incubator. After a further 60 minutes incubation, the signal is measured using a PerkinElmer Envision HTS Multilabel Reader using the AlphaScreen specifications from PerkinElmer. Each plate contains the following controls:
(§7) diluted DMSO+KRAS::SOS1 GDP mix+bead mix
(§8) diluted DMSO+KRAS::SOS1 GDP mix
(§9) Result calculation: IC50 values are calculated and analyzed using a 4 parametric logistic model.
(§10) Table 1: Inhibition values for KRAS G12C as well as for KRAS G12D. […] The value indicates an average value of at least two measurements.

CYP3A4 = CYP3A4 (Homo sapiens (Human), UniProt P08684); test: Mechanism-based inhibition of CYP3A4 assay (MBI 3A4); format: in vitro ADME; details: human liver microsomes, midazolam substrate, hydroxy-midazolam formation after 30 min preincubation relative to 0 min; for inhibition at 30 min: human, probe midazolam 15 μM (hydroxy-midazolam formation), read-out: MBI inhibition % ctrl. [%] with MDZ
CYP3A4, sequence (P08684 whole entry): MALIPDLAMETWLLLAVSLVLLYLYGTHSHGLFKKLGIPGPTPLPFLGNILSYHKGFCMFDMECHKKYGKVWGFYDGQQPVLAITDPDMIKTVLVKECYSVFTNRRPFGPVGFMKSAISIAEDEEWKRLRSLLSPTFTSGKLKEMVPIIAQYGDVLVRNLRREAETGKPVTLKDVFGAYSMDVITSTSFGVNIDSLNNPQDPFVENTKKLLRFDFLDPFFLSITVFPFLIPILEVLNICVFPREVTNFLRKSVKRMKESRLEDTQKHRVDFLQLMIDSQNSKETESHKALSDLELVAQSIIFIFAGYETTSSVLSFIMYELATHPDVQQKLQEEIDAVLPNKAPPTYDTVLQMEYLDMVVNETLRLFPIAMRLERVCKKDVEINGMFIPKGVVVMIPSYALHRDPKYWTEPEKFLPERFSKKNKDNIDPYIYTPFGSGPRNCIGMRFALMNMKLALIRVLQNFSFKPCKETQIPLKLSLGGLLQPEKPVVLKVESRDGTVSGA
Method: Mechanism-Based Inhibition of CYP3A4 assay (MBI 3A4): The mechanism-based inhibition towards CYP3A4 is assayed in human liver microsomes with midazolam as substrate. The test compounds and water control (wells w/o test compound) are preincubated in presence of NADPH (1 mM) with human liver microsomes (0.2 mg/mL) at a concentration of 0, 5 and 25 μM for 0, 10 and 30 min. After preincubation, the incubate is diluted 1:10 (to 0.02 mg/mL) and the substrate midazolam (15 μM) is added for the main incubation (10 min). The main incubation is quenched with ACN and the formation of hydroxy-midazolam is quantified via LC/MS-MS. The formation of hydroxy-midazolam from the 30 min preincubation relative to the formation from the 0 min preincubation is used as a readout. Values of less than 100% mean that the substrate midazolam is metabolized to a lower extent upon 30 min preincubation compared to 0 min preincubation. In general, low effects upon 30 min preincubation are desired (corresponding to values close to 100%/not different to the values determined with water control).
Table 5: Mechanism-based inhibition of P450 isoenzyme 3A4 with midazolam as substrate.

human hepatocytes = test: Metabolic stability in human hepatocytes; details: 1 μM test compound, 50% human serum, percentage of liver blood flow
[1] = test system: ERK phosphorylation in NCI-H358 SOS2 KO cells (KRAS G12C); test: Erk phosphorylation assay; format: cell-based, human; details: EGF stimulated, average of at least two measurements, read-out: pERK IC50
Method: Low IC50 values are indicative of high potency of the SOS1 inhibitor compounds in this assay setting.
ERK phosphorylation assays are performed using the following human cell line: • NCI-H358 SOS2 KO (Hofmann, Gmachl, Ramharter et al, Cancer Discov. 2021, 11(1):142-15): human lung cancer with a KRAS G12C mutation;
NCI-H358 SOS2 KO are seeded at 50000 cells per well in 60 μL of DMEM with 2% FBS, in Greiner TC 384 plates. The cells are incubated overnight in an incubator at 37° C. and 5% CO2 in a humidified atmosphere. 60 nL compound solution (10 mM DMSO stock solution) is then added using a Beckman Coulter Labcyte Echo 550 device. After 50 min incubation in the aforementioned incubator, 5 nl EGF are added to each well for a final concentration of approx. 8 ng/mL using a Beckman Coulter Labcyte Echo 550 device and cells are incubated for another 10-15 minutes before lysis. The medium is removed, and the cells are lysed by addition of 20 μL of 1.6-fold lysis buffer from the AlphaLISA SureFire Ultra pERK1/2 (Thr202/Tyr204) Assay Kit with added protease inhibitors. After 20 minutes of incubation at rt with shaking, 6 μL of each lysate sample is transferred to a 384-well Proxiplate and analyzed for pERK (Thr202/Tyr204) with the AlphaLISA SureFire Ultra pERK1/2 (Thr202/Tyr204) Assay Kit. 3 μL Acceptor Mix and 3 μL Donor Mix are added under subdued light and incubated for 2 h at rt in the dark, before the signal is measured on a Perkin Elmer Envision plate reader using 384 AlphaScreen settings for Proxiplates. Data are fitted by iterative calculation with variable hill slope. The sigmoidal curve slope is fitted using a default fitting curve to ascertain IC50 values.
Table 2: Erk Phosphorylation assay. The value indicates an average value of at least two measurements.

SOS1 and KRAS G12D = SOS1 and KRAS G12D (Homo sapiens (Human), UniProt Q07889); test: KRAS::SOS1 AlphaScreen binding assay (KRAS G12D); details: average of at least two measurements
SOS1 and KRAS G12D, sequence (Q07889 564-1049, stated change not applied): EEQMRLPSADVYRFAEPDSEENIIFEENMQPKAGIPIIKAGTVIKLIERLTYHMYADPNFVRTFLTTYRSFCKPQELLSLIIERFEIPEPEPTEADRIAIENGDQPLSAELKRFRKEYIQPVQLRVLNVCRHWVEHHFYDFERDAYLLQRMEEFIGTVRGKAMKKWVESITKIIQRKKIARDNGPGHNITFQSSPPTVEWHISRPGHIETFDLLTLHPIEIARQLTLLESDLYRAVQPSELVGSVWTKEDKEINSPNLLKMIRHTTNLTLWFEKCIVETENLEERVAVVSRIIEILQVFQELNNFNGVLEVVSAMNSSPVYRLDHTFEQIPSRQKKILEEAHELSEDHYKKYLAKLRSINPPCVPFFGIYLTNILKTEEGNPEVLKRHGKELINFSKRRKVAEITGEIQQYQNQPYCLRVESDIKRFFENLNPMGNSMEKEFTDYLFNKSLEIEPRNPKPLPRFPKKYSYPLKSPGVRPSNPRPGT
Method: as §1, §2, §3, §4, §5, §6, §7, §8, §9, §10

P450 3A4 = P450 3A4 (Homo sapiens (Human), UniProt P08684); test: Cytochrome P450 isoenzyme inhibition assay (P450 3A4, midazolam); format: in vitro ADME; details: human liver microsomes, Midazolam as substrate; read-out: CYP3A4 inhibition IC50
P450 3A4, sequence (P08684 whole entry): as the sequence (P08684 whole entry) above
Method: For the following cytochrome P450 isoenzymes, these substrates and metabolic reactions are monitored: P450 3A4: hydroxylation of Midazolam (MDZ).
The final incubation volume contains TRIS buffer (0.1 M), MgCl2 (5 mM), a certain concentration of human liver microsomes dependent on the P450 isoenzyme measured (P450 3A4: 0.1 mg/ml) and a certain concentration of the individual substrate for each isoenzyme (P450 3A4: Midazolam 5 μM).
The effect of the test compound is determined at five different concentrations in duplicate (e.g. highest concentration 50 μM with subsequent serial 1:4 dilutions) or without test compound (high control). Following a short preincubation period, reactions are started with the cofactor (NADPH, 1 mM) and stopped by cooling the incubation down to 8° C. and subsequently by addition of one volume of ACN. An internal standard solution—usually the stable isotope of the formed metabolite—is added after quenching of incubations. Peak area analyte (=metabolite formed) and internal standard is determined by LC-MS/MS. The resulting peak area ratio analyte to internal standard in these incubations is compared to a control activity containing no test compound. Within each of the assay runs, the IC50 of a positive control inhibitor dependent on the P450 isoenzyme measured (P450 3A4: ketoconazole) is determined. The assay results are plotted against compound concentrations to calculated IC50 values (half maximal inhibitory concentrations) for inhibitory compounds utilizing Software IDBS E-WorkBook.
Table 4: Inhibition of P450 isoenzyme 3A^4.

[2] = Homo sapiens, NCI-H358, NCI-H358 SOS2 KO cells

SOS1 and KRAS G12C, sequence (Q07889 564-1049, stated change not applied): as the sequence (Q07889 564-1049, stated change not applied) above

| SMILES | IC50 (SOS1 and KRAS G12C) [nM] | inhibition at 30 min (CYP3A4) [%] | Hepatic clearance - QH[%] in human hepatocytes (human hepatocytes) [%] | pIC50 ([1]; NCI-H358 SOS2 KO cells) | IC50 (SOS1 and KRAS G12D) [nM] | pIC50 (P450 3A4) | pIC50 [1, 2] | MBI inhibition % ctrl. [%] with MDZ (CYP3A4) [%] |
| --- | --- | --- | --- | --- | --- | --- | --- | --- |
| C[C@@H](NC(=O)c1cc(N2CCC(NC3CCCC3(C)O)CC2)c2ncnn2c1)c1cccc(C(F)(F)F)c1F (single isomer, unassigned) [Example trans-E53b] | 33 | 91 | 28 | 6.54 | 35 | < 4.30 |  |  |
| C[C@@H](NC(=O)c1cc(N2CCC(N3CC[C@H](CO)C3)CC2)c2ncnn2c1)c1cccc(C(F)(F)F)c1F [Example E26] | 86 | 92 | 8 |  | 78 | < 4.30 | 6.83 |  |
| CO[C@H]1CCN(C2CCN(c3cc(C(=O)N[C@H](C)c4cccc(C(F)F)c4F)cn4ncnc34)CC2)C1 [Example E10] | 74 | 97 | 29 |  | 67 | < 4.30 | 6.67 |  |
| C[C@@H](NC(=O)c1cc(N2CCC(NC3COCC3O)CC2)c2ncnn2c1)c1cccc(C(F)(F)F)c1F (single isomer, unassigned) [Example trans-E42a] | 26 |  | 18 | 6.74 | 26 | < 4.30 |  | 101 |
| CO[C@@H]1CCN(C2CCN(c3cc(C(=O)N[C@H](C)c4cccc(C(F)(F)F)c4F)cn4cnnc34)CC2)C1 [Example E75] | 65 | 99 | 9 |  | 60 | < 4.30 | 6.39 |  |
| C[C@@H](NC(=O)c1cc(N2CCC(O)(C3CCCN3)CC2)c2ncnn2c1)c1cccc(C(F)F)c1F (single isomer, unassigned) [Example E38a] | 66 | 94 | 10 |  | 45 | < 4.30 | 6.95 |  |
| C[C@@H](NC(=O)c1cc(N2CCC3(CCCN3C)CC2)c2ncnn2c1)c1cccc(C(F)F)c1F [Example E20] | 44 | 94 | 19 |  | 33 | < 4.30 | 6.84 |  |
| C[C@@H](NC(=O)c1cc(N2CCC(N3C[C@H](O)C4(CC4)C3)CC2)c2ncnn2c1)c1cccc(C(F)(F)F)c1F [Example E28] | 70 | 90 | 23 |  | 70 | < 4.30 | 6.73 |  |
| C[C@@H](NC(=O)c1cc([C@H]2CC[C@H](N3C[C@H](F)C[C@@H]3CO)CC2)c2ncnn2c1)c1cccc(C(F)F)c1F [Example E60] | 21 | 90 | 26 |  | 20 | < 4.30 | 6.54 |  |
| C[C@@H](NC(=O)c1cc(N2CC3CCC(C2)N3C)c2nncn2c1)c1cccc(C(F)(F)F)c1F [Example E76] | 49 | 84 |  |  | 36 | < 4.30 | 6.64 |  |
| CC(C)N1CC=C(c2cc(C(=O)N[C@H](C)c3cccc(C(F)(F)F)c3F)cn3cnnc23)CC1 [Example E83] | 30 | 86 |  |  | 26 | < 4.30 | 6.88 |  |
| C[C@@H](NC(=O)c1cc(N2CCC(N3CCCC(O)CC3)CC2)c2ncnn2c1)c1cccc(C(F)(F)F)c1F (single isomer, unassigned) [Example E43b] | 34 |  |  | 7.00 | 35 | < 4.30 |  | 94 |
